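Abbreviation: GI50, concentration required for 50% inhibition of growth. TGI denotes the concentration required for complete inhibition of growth.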
What was measured:
Assay in all cases: NCI anticancer screen, dose series, 384-well format
HL-60(TB) leukemia = tested on: HL-60(TB) leukemia
HOP-62 NSCLC = tested on: HOP-62 NSCLC
HS 578T breast = tested on: HS 578T breast
IGROV1 ovarian = tested on: IGROV1 ovarian
LOX IMVI melanoma = tested on: LOX IMVI melanoma
MDA-MB-231 breast = tested on: MDA-MB-231 breast
MDA-MB-468 breast = tested on: MDA-MB-468 breast
NCI/ADR-RES ovarian = tested on: NCI/ADR-RES ovarian
OVCAR-4 ovarian = tested on: OVCAR-4 ovarian
OVCAR-5 ovarian = tested on: OVCAR-5 ovarian
OVCAR-8 ovarian = tested on: OVCAR-8 ovarian
RXF 393 renal = tested on: RXF 393 renal
U251 glioblastoma = tested on: U251 glioblastoma

SMILES | GI50 (HL-60(TB) leukemia) [µM] | TGI (HL-60(TB) leukemia) [µM] | GI50 (HOP-62 NSCLC) [µM] | TGI (HOP-62 NSCLC) [µM] | GI50 (HS 578T breast) [µM] | TGI (HS 578T breast) [µM] | GI50 (IGROV1 ovarian) [nM] | TGI (IGROV1 ovarian) [µM] | GI50 (LOX IMVI melanoma) [µM] | TGI (LOX IMVI melanoma) [µM] | GI50 (MDA-MB-231 breast) [µM] | TGI (MDA-MB-231 breast) [µM] | GI50 (MDA-MB-468 breast) [nM] | TGI (MDA-MB-468 breast) [nM] | GI50 (NCI/ADR-RES ovarian) [µM] | TGI (NCI/ADR-RES ovarian) [µM] | GI50 (OVCAR-4 ovarian) [µM] | TGI (OVCAR-4 ovarian) [µM] | GI50 (OVCAR-5 ovarian) [µM] | TGI (OVCAR-5 ovarian) [µM] | also measured
CC(=O)OC[C@H]1O[C@@H](n2ccc(=O)[nH]c2=O)[C@H](OC(C)=O)[C@@H]1OC(C)=O | > 100 | > 100 | > 100 | > 100 | > 100 | > 100 | > 100000 | > 100 | > 100 | > 100 | > 100 | > 100 | > 100000 | > 100000 | > 100 | > 100 | > 100 | > 100 | > 100 | > 100 | GI50 (OVCAR-8 ovarian): > 100 µM; TGI (OVCAR-8 ovarian): > 100 µM; GI50 (RXF 393 renal): > 100 µM; TGI (RXF 393 renal): > 100 µM; GI50 (U251 glioblastoma): > 100 µM; TGI (U251 glioblastoma): > 100 µM
C#Cc1cccc(Nc2ncnc3cc(OCCOC)c(OCCOC)cc23)c1 | 6.29 | > 43.1 | 28.5 | > 100 | 3.85 | 45.8 | 385 | 5.62 | 7.97 | > 100 | > 46.6 | > 100 | 183 | 777 | 12.6 | > 100 | 32 | > 100 | 6.96 | > 100 | GI50 (OVCAR-8 ovarian): 7.75 µM; TGI (OVCAR-8 ovarian): > 100 µM; GI50 (RXF 393 renal): 7.83 µM; TGI (RXF 393 renal): > 27.3 µM; GI50 (U251 glioblastoma): 43.4 µM; TGI (U251 glioblastoma): > 100 µM

— PubChem BioAssay (NCI)
